# Results taken from paper PMC9227830, “Neuroprotective Effect of Yucca schidigera Roezl ex Ortgies Bark Phenolic Fractions, Yuccaol B and Gloriosaol A on Scopolamine-Induced Memory Deficits in Zebrafish” (Molecules, 2022).
# Molecular target: T1, Glycine max (soybean) 15-lipoxygenase (15-LOX) (Glycine max, UniProt P08170)
# T1 construct: gene LOX1.1; commercial native soybean enzyme (Sigma-Aldrich)
# T1 sequence (P08170 1-839): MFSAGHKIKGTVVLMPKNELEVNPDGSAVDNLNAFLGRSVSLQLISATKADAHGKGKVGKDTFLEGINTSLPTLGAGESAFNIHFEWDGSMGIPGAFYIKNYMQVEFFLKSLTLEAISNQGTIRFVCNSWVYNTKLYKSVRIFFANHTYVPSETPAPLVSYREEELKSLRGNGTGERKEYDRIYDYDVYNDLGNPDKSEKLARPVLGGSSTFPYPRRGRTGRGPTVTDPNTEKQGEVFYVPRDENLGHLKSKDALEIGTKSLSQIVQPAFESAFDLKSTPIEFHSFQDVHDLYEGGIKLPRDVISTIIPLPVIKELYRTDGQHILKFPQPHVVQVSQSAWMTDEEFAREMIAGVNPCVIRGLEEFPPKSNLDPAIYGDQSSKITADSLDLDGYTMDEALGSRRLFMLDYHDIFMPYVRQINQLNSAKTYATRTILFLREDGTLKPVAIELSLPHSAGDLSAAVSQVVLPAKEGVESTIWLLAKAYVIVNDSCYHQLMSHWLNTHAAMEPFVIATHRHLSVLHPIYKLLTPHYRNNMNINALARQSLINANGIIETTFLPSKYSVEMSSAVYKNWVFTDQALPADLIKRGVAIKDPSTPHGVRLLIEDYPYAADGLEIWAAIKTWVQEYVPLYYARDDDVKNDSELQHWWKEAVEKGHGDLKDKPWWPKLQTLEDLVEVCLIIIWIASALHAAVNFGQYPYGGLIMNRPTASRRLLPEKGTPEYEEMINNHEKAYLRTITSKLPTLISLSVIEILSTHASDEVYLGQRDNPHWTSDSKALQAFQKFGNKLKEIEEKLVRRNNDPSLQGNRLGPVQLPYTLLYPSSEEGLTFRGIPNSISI
# Experiment: UV spectrophotometry at […] nm, linoleic acid oxidation (modified Malterud)
# Type: biochemical
# Conditions: read-out: EC50 (the source's name) (converted)
row,SMILES,IC50 [µM]
1,"O=C1Oc2cc(O)cc(/C=C/c3ccc(O)cc3)c2[C@@]12c1c(O)cc(O)cc1O[C@H]2c1ccc(O)cc1 [YuB, yuccaol B]",19.5
2,"O=C1O[C@H]([C@@H](O)CO)C(O)=C1O [vitamin C, reference compound]",122
3,"COc1c(O)cc(/C=C/c2cc(O)cc3c2[C@]2(C(=O)O3)c3c(O)cc(O)cc3O[C@H]2c2ccc(O)cc2)c2c1OC(=O)[C@]21c2c(O)cc(O)cc2O[C@H]1c1ccc(O)cc1 [GloA, gloriosaol A]",15.2
